# In patent US8236818B2, “Substituted imidazopyridine derivatives as melanocortin-4 receptor antagonists” (Santhera Pharmaceuticals (Schweiz) AG, priority 2007, dated 2012):
# Biological target: T1, melanocortin-4 receptor (Homo sapiens, UniProt P32245)
# T1 construct: expressed in transfected cells; host or cells: HEK293 cells (membrane preparations)
# Assay: Membrane binding assay (fluorescence polarization, competition with fluorescence labeled NDP-alpha-MSH)
# Details: read-out: hMC-4R binding assay IC50/μM
# T1 sequence (P32245 whole entry): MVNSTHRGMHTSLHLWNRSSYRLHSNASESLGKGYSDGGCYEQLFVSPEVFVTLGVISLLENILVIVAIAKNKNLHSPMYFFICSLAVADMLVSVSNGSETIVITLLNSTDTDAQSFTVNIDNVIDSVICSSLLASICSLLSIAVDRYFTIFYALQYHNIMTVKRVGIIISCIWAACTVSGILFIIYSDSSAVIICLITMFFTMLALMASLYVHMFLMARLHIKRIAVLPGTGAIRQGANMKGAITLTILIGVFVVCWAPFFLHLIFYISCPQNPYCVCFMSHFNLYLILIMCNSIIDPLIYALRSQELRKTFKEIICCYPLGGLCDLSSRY
row,SMILES,IC50 [µM]
1,CC(C)CCN(CCC(C)C)C(=O)c1ccc2nc(-c3ncccn3)c(CCCN3CCCC3)n2c1 [Example 84],< 0.1
2,CC(C)CCN(CCC(C)C)C(=O)c1ccc2nc(-c3ccc(Cl)cc3)c(CN3C[C@H]4CNC[C@H]4C3)n2c1 [Example 127],0.1 to 1
3,Cc1ccnc(-c2nc3ccc(C(=O)N(CCC(C)C)CCC(C)C)cn3c2CCCN2CCCC2)c1 [Example 40],0.1 to 1
4,CC(C)CCN(CCC(C)C)C(=O)c1ccc2nc(-c3ccc(C#N)cc3)c(CN3CCC(N)CC3)n2c1 [Example 138],0.1 to 1
5,CC(C)CCN(CCC(C)C)C(=O)c1ccc2nc(-c3ccc4c(c3)CCC(=O)N4)c(CCCN3CCCC3)n2c1 [Example 45],< 0.1
6,CC(C)CCN(CCC(C)C)C(=O)c1ccc2nc(-c3cccs3)c(CN3CCC(N)CC3)n2c1 [Example 125],0.1 to 1
7,CC(C)CCN(CCC(C)C)C(=O)c1ccc2nc(-c3cccc(Cl)c3)c(CN3CCC(N)CC3)n2c1 [Example 120],> 1
8,CCCCN(CCCC)C(=O)c1ccc2nc(-c3ccc(C#N)cc3)c(CCCN3CCCC3)n2c1 [Example 142],< 0.1
9,CC(C)CCN(CCC(C)C)C(=O)c1ccc2nc(-c3ccc(F)cc3)c(CN3CCC(N)CC3)n2c1 [Example 118],0.1 to 1
10,CC(C)CCN(CCC(C)C)C(=O)c1ccc2nc(-c3ccc(Cl)c(Cl)c3)c(CN3CCC(N(C)C)CC3)n2c1 [Example 131],< 0.1
11,CC(=O)OCCn1cc(-c2nc3ccc(C(=O)N(CCC(C)C)CCC(C)C)cn3c2CCCN2CCCC2C)ccc1=O (centres unmarked) [Example 101],< 0.1
12,CC(C)CCN(CCC(C)C)C(=O)c1ccc2nc(-c3ncco3)c(CCCN3CC[C@H](F)C3)n2c1 [Example 78],< 0.1
13,CC(C)CCN(CCC(C)C)C(=O)c1ccc2nc(-c3ccc(=O)n(CCO)c3)c(CCCN3CCCC3C)n2c1 (centres unmarked) [Example 103],< 0.1
14,CC(C)CCN(CCC(C)C)C(=O)c1ccc2nc(-c3ccc(C#N)cc3)c(CCCN3CCCC3)n2c1 [Example 17],< 0.1
15,COc1ccc(-c2nc3ccc(C(=O)N(CCC(C)C)CCC(C)C)cn3c2CCCN2CCCC2)cn1 [Example 82],< 0.1
16,CC(C)CCN(CCC(C)CO)C(=O)c1ccc2nc(-c3ccc(=O)[nH]c3)c(CCCN3CCCC3)n2c1 (centres unmarked) [Example 149],0.1 to 1
17,CC(C)CCN(CCC(C)C)C(=O)c1ccc2nc(-c3ccc(Cl)cc3)c(CCCN)n2c1 [Example 4],0.1 to 1
18,CCN(C)CCCCc1c(-c2ccc(Cl)cc2)nc2ccc(C(=O)N(CCC(C)C)CCC(C)C)cn12 [Example 23],0.1 to 1
19,CC(=O)OCCOc1ccc(-c2nc3ccc(C(=O)N(CCC4CC4)CCC4CC4)cn3c2CCCN2CCCC2)cn1 [Example 106],0.1 to 1
20,CC(C)CCN(CCC(C)C)C(=O)c1ccc2nc(-c3ccc(=O)n(CC(C)O)c3)c(CCCN3CCCC3)n2c1 (centres unmarked) [Example 93],0.1 to 1
21,COc1cccc(-c2nc3ccc(C(=O)N(CCC(C)C)CCC(C)C)cn3c2CCCN2CCNCC2)c1 [Example 36],> 1
22,CC(C)CCN(CCC(C)C)C(=O)c1ccc2nc(-c3ccc(Cl)nc3)c(CCCN(C)C)n2c1 [Example 66],0.1 to 1

row,SMILES,IC50 [µM]
1,COc1ccc(-c2nc3ccc(C(=O)N(CCC(C)C)CCC(C)C)cn3c2CN2CCC(N)CC2)cc1OC [Example 139],0.1 to 1
2,CC(C)CCN(CCC(C)C)C(=O)c1ccc2nc(-c3ccc(Cl)nc3)c(CCCN3CCCC3)n2c1 [Example 67],< 0.1
3,COc1cccc(-c2nc3ccc(C(=O)N(CCC(C)C)CCC(C)C)cn3c2CCCN2CC(O)C2)c1 [Example 37],< 0.1
4,COc1cccc(-c2nc3ccc(C(=O)N(CCC(C)C)CCC(C)C)cn3c2CCCN2CCCC2)c1 [Example 9],< 0.1
5,CC(C)CCN(CCC(C)C)C(=O)c1ccc2nc(-c3ncco3)c(CCCN3CCC[C@@H]3CO)n2c1 [Example 70],0.1 to 1
6,CC(C)CCN(CCC(C)C)C(=O)c1ccc2nc(-c3ncco3)c(CCCN3CCCC3)n2c1 [Example 47],< 0.1
7,CC(C)CCN(CCC(C)C)C(=O)c1ccc2nc(-c3ccc(C#N)cc3)c(CCCN(C)C)n2c1 [Example 18],0.1 to 1
8,CC(=O)OCCn1cc(-c2nc3ccc(C(=O)N(CCC4CC4)CCC4CC4)cn3c2CCCN2CCCC2)ccc1=O [Example 105],0.1 to 1
9,CC(C)CCN(CCC(C)C)C(=O)c1ccc2nc(-c3cccnc3N)c(CCCN(C)C)n2c1 [Example 87],> 1
10,COc1cccc(-c2nc3ccc(C(=O)N(CCC(C)C)CCC(C)C)cn3c2CN2CCNCC2)c1 [Example 121],> 1
11,CCN(C)CCCc1c(-c2cccc(OC)c2)nc2ccc(C(=O)N(CCC(C)C)CCC(C)C)cn12 [Example 29],< 0.1
12,CC(C)CCN(CCC(C)C)C(=O)c1ccc2nc(-c3ncco3)c(CCCN(C)C)n2c1 [Example 52],0.1 to 1
13,Cc1ccc(-c2nc3ccc(C(=O)N(CCC(C)C)CCC(C)C)cn3c2CCCN2CCCC2)nc1 [Example 57],< 0.1
14,CC(C)CCN(CCC(C)C)C(=O)c1ccc2nc(-c3ccc(C(=O)N(C)C)cc3)c(CCCN3CCCC3)n2c1 [Example 63],0.1 to 1
15,CC(C)CCN(CCC(C)C)C(=O)c1ccc2nc(-c3nccs3)c(CCCN(C)C)n2c1 [Example 61],0.1 to 1
16,CC1CCCN1CCCc1c(-c2ccc(OCCO)nc2)nc2ccc(C(=O)N(CCC3CC3)CCC3CC3)cn12 (centres unmarked) [Example 112],< 0.1
17,COc1cccc(-c2nc3ccc(C(=O)N(CCC(C)C)CCC(C)C)cn3c2CC(C)CN2CCCC2)c1 (centres unmarked) [Example 54],0.1 to 1
18,Cc1ccc(-c2nc3ccc(C(=O)N(CCC(C)C)CCC(C)C)cn3c2CCCN(C)C)nc1 [Example 58],> 1
19,CC(C)CCN(CCC(C)C)C(=O)c1ccc2nc(-c3ccc(C(F)(F)F)cc3)c(CN3CCC(N)CC3)n2c1 [Example 134],0.1 to 1
20,COc1cccc(-c2nc3ccc(C(=O)N(CCC(C)C)CCC(C)C)cn3c2CCCN2CC[C@@H](F)C2)c1 [Example 32],0.1 to 1
21,CC(C)CCN(CCC(C)C)C(=O)c1ccc2nc(-c3ccc(C#N)cc3)c(CCN3CCN(C)CC3)n2c1 [Example 27],> 1
22,CC(C)CCN(CCC(C)C)C(=O)c1ccc2nc(-c3ccc(-c4ccccn4)s3)c(CN3CCC(N)CC3)n2c1 [Example 124],0.1 to 1

# Biological target: T1, melanocortin-4 receptor
# Assay: Functional assay (cAMP fluorescence polarization, membrane based, agonistic activity)
# Type: biochemical
# Details: 2 h; read-out: % activation functional assay
row,SMILES,Emax [%]
1,CC(C)CCN(CCC(C)C)C(=O)c1ccc2nc(-c3ncccn3)c(CCCN3CCCC3)n2c1 [Example 84],-8
2,CC(C)CCN(CCC(C)C)C(=O)c1ccc2nc(-c3ccc(Cl)cc3)c(CN3C[C@H]4CNC[C@H]4C3)n2c1 [Example 127],0
3,Cc1ccnc(-c2nc3ccc(C(=O)N(CCC(C)C)CCC(C)C)cn3c2CCCN2CCCC2)c1 [Example 40],0
4,CC(C)CCN(CCC(C)C)C(=O)c1ccc2nc(-c3ccc(C#N)cc3)c(CN3CCC(N)CC3)n2c1 [Example 138],0
5,CC(C)CCN(CCC(C)C)C(=O)c1ccc2nc(-c3ccc4c(c3)CCC(=O)N4)c(CCCN3CCCC3)n2c1 [Example 45],0
6,CC(C)CCN(CCC(C)C)C(=O)c1ccc2nc(-c3cccs3)c(CN3CCC(N)CC3)n2c1 [Example 125],0
7,CC(C)CCN(CCC(C)C)C(=O)c1ccc2nc(-c3cccc(Cl)c3)c(CN3CCC(N)CC3)n2c1 [Example 120],0
8,CCCCN(CCCC)C(=O)c1ccc2nc(-c3ccc(C#N)cc3)c(CCCN3CCCC3)n2c1 [Example 142],0
9,CC(C)CCN(CCC(C)C)C(=O)c1ccc2nc(-c3ccc(F)cc3)c(CN3CCC(N)CC3)n2c1 [Example 118],0
10,CC(C)CCN(CCC(C)C)C(=O)c1ccc2nc(-c3ccc(Cl)c(Cl)c3)c(CN3CCC(N(C)C)CC3)n2c1 [Example 131],0
11,CC(=O)OCCn1cc(-c2nc3ccc(C(=O)N(CCC(C)C)CCC(C)C)cn3c2CCCN2CCCC2C)ccc1=O (centres unmarked) [Example 101],-25
12,CC(C)CCN(CCC(C)C)C(=O)c1ccc2nc(-c3ncco3)c(CCCN3CC[C@H](F)C3)n2c1 [Example 78],2
13,CC(C)CCN(CCC(C)C)C(=O)c1ccc2nc(-c3ccc(=O)n(CCO)c3)c(CCCN3CCCC3C)n2c1 (centres unmarked) [Example 103],-20
14,CC(C)CCN(CCC(C)C)C(=O)c1ccc2nc(-c3ccc(C#N)cc3)c(CCCN3CCCC3)n2c1 [Example 17],0
15,COc1ccc(-c2nc3ccc(C(=O)N(CCC(C)C)CCC(C)C)cn3c2CCCN2CCCC2)cn1 [Example 82],-17
16,CC(C)CCN(CCC(C)CO)C(=O)c1ccc2nc(-c3ccc(=O)[nH]c3)c(CCCN3CCCC3)n2c1 (centres unmarked) [Example 149],0
17,CC(C)CCN(CCC(C)C)C(=O)c1ccc2nc(-c3ccc(Cl)cc3)c(CCCN)n2c1 [Example 4],0
18,CCN(C)CCCCc1c(-c2ccc(Cl)cc2)nc2ccc(C(=O)N(CCC(C)C)CCC(C)C)cn12 [Example 23],0
19,CC(=O)OCCOc1ccc(-c2nc3ccc(C(=O)N(CCC4CC4)CCC4CC4)cn3c2CCCN2CCCC2)cn1 [Example 106],0
20,CC(C)CCN(CCC(C)C)C(=O)c1ccc2nc(-c3ccc(=O)n(CC(C)O)c3)c(CCCN3CCCC3)n2c1 (centres unmarked) [Example 93],0
21,COc1cccc(-c2nc3ccc(C(=O)N(CCC(C)C)CCC(C)C)cn3c2CCCN2CCNCC2)c1 [Example 36],0
22,CC(C)CCN(CCC(C)C)C(=O)c1ccc2nc(-c3ccc(Cl)nc3)c(CCCN(C)C)n2c1 [Example 66],0

row,SMILES,Emax [%]
1,COc1ccc(-c2nc3ccc(C(=O)N(CCC(C)C)CCC(C)C)cn3c2CN2CCC(N)CC2)cc1OC [Example 139],0
2,CC(C)CCN(CCC(C)C)C(=O)c1ccc2nc(-c3ccc(Cl)nc3)c(CCCN3CCCC3)n2c1 [Example 67],0
3,COc1cccc(-c2nc3ccc(C(=O)N(CCC(C)C)CCC(C)C)cn3c2CCCN2CC(O)C2)c1 [Example 37],0
4,COc1cccc(-c2nc3ccc(C(=O)N(CCC(C)C)CCC(C)C)cn3c2CCCN2CCCC2)c1 [Example 9],0
5,CC(C)CCN(CCC(C)C)C(=O)c1ccc2nc(-c3ncco3)c(CCCN3CCC[C@@H]3CO)n2c1 [Example 70],0
6,CC(C)CCN(CCC(C)C)C(=O)c1ccc2nc(-c3ncco3)c(CCCN3CCCC3)n2c1 [Example 47],0
7,CC(C)CCN(CCC(C)C)C(=O)c1ccc2nc(-c3ccc(C#N)cc3)c(CCCN(C)C)n2c1 [Example 18],0
8,CC(=O)OCCn1cc(-c2nc3ccc(C(=O)N(CCC4CC4)CCC4CC4)cn3c2CCCN2CCCC2)ccc1=O [Example 105],-24
9,CC(C)CCN(CCC(C)C)C(=O)c1ccc2nc(-c3cccnc3N)c(CCCN(C)C)n2c1 [Example 87],0
10,COc1cccc(-c2nc3ccc(C(=O)N(CCC(C)C)CCC(C)C)cn3c2CN2CCNCC2)c1 [Example 121],0
11,CCN(C)CCCc1c(-c2cccc(OC)c2)nc2ccc(C(=O)N(CCC(C)C)CCC(C)C)cn12 [Example 29],0
12,CC(C)CCN(CCC(C)C)C(=O)c1ccc2nc(-c3ncco3)c(CCCN(C)C)n2c1 [Example 52],0
13,Cc1ccc(-c2nc3ccc(C(=O)N(CCC(C)C)CCC(C)C)cn3c2CCCN2CCCC2)nc1 [Example 57],0
14,CC(C)CCN(CCC(C)C)C(=O)c1ccc2nc(-c3ccc(C(=O)N(C)C)cc3)c(CCCN3CCCC3)n2c1 [Example 63],0
15,CC(C)CCN(CCC(C)C)C(=O)c1ccc2nc(-c3nccs3)c(CCCN(C)C)n2c1 [Example 61],0
16,CC1CCCN1CCCc1c(-c2ccc(OCCO)nc2)nc2ccc(C(=O)N(CCC3CC3)CCC3CC3)cn12 (centres unmarked) [Example 112],-9
17,COc1cccc(-c2nc3ccc(C(=O)N(CCC(C)C)CCC(C)C)cn3c2CC(C)CN2CCCC2)c1 (centres unmarked) [Example 54],0
18,Cc1ccc(-c2nc3ccc(C(=O)N(CCC(C)C)CCC(C)C)cn3c2CCCN(C)C)nc1 [Example 58],0
19,CC(C)CCN(CCC(C)C)C(=O)c1ccc2nc(-c3ccc(C(F)(F)F)cc3)c(CN3CCC(N)CC3)n2c1 [Example 134],0
20,COc1cccc(-c2nc3ccc(C(=O)N(CCC(C)C)CCC(C)C)cn3c2CCCN2CC[C@@H](F)C2)c1 [Example 32],0
21,CC(C)CCN(CCC(C)C)C(=O)c1ccc2nc(-c3ccc(C#N)cc3)c(CCN3CCN(C)CC3)n2c1 [Example 27],0
22,CC(C)CCN(CCC(C)C)C(=O)c1ccc2nc(-c3ccc(-c4ccccn4)s3)c(CN3CCC(N)CC3)n2c1 [Example 124],0

# Same assay, conditions: agonistic activity, cAMP, HEK293 membrane preparations; read-out: hMC-4R functional assay EC50/μM
row,SMILES,EC50 [µM]
1,COc1ccc(-c2nc3ccc(C(=O)N(CCC(C)C)CCC(C)C)cn3c2CCCN2CCCC2)cn1 [Example 82],< 0.1
